Results reported in PubChem BioAssay AID260 (DTP/NCI, 2004).
“And” between values parts separate entries of the source, which are not always exact repeats. Equal entries are not always repeated. Inconclusive results and toxic doses are left out.

Test system: CD2F1 mice, intracerebral L1210 leukemia, survival T/C
Assay: NCI In Vivo Anticancer Drug Screen. Data for tumor model L1210 Leukemia (intracerebral) in CD2F1 (CDF1) mice
Conditions: higher = longer survival
Method: The antitumor activity of compounds was measured in mice bearing transplantable tumors. Survival or tumor size were measured and the results are expressed as the measurement made in the treated group (T) divided by the measurement made in the vehicle treated control group (C). The tumor model used in this assay is L1210 Leukemia (intracerebral) in CD2F1 (CDF1) mice

[1] = endpoint: median survival time, dose: 8.0 mg/kg/injection, schedule: Q01DX009 (ip), vehicle: saline with Tween-80
[2] = endpoint: median survival time, dose: 16.0 mg/kg/injection, schedule: Q01DX009 (ip), vehicle: saline with Tween-80
[3] = endpoint: median survival time, dose: 32.0 mg/kg/injection, schedule: Q01DX009 (ip), vehicle: saline with Tween-80
[4] = endpoint: median survival time, dose: 16.0 mg/kg/injection, schedule: Q01DX005 (ip), vehicle: saline with Tween-80
[5] = endpoint: median survival time, dose: 32.0 mg/kg/injection, schedule: Q01DX005 (ip), vehicle: saline with Tween-80
[6] = endpoint: median survival time, dose: 64.0 mg/kg/injection, schedule: Q01DX005 (ip), vehicle: saline with Tween-80
[7] = endpoint: median survival time, dose: 128.0 mg/kg/injection, schedule: Q01DX005 (ip), vehicle: saline with Tween-80

C[C@@H](CN1CC(=O)NC(=O)C1)N1CC(=O)NC(=O)C1
T/C (endpoint: mean survival time, dose: 64.0 mg/kg/injection, schedule: Q01DX009 (ip), vehicle: water): 164 % of control | T/C (endpoint: mean survival time, dose: 256.0 mg/kg/injection, schedule: Q01DX009 (ip), vehicle: water): 111 % of control | T/C (endpoint: mean survival time, dose: 512.0 mg/kg/injection, schedule: Q01DX009 (ip), vehicle: water): 100 % of control

COc1cc(C[C@H]2c3cc(OC)c(OC)cc3CCN2C)c(Oc2cc3c(cc2OC)-c2c(OC)c(OC)cc4c2[C@H](C3)N(C)CC4)cc1OC
T/C (endpoint: median survival time, dose: 50.0 mg/kg/injection, schedule: Q01DX005 (ip), vehicle: Klucel (hydroxypropylcellulose) (HPC)): 97 % of control | T/C (endpoint: median survival time, dose: 100.0 mg/kg/injection, schedule: Q01DX005 (ip), vehicle: Klucel (hydroxypropylcellulose) (HPC)): 102 % of control | T/C (endpoint: median survival time, dose: 200.0 mg/kg/injection, schedule: Q01DX005 (ip), vehicle: Klucel (hydroxypropylcellulose) (HPC)): 94 % of control

CC(=O)OC1(C)CC(C)C(=O)C(C(O)CC2CC(=O)NC(=O)C2)C1 (configuration not stated)
T/C (endpoint: mean survival time, dose: 0.04 mg/kg/injection, schedule: Q01DX009 (ip), vehicle: saline): 101 % of control | T/C (endpoint: mean survival time, dose: 0.06 mg/kg/injection, schedule: Q01DX009 (ip), vehicle: saline): 101 % of control | T/C (endpoint: mean survival time, dose: 0.13 mg/kg/injection, schedule: Q01DX009 (ip), vehicle: saline): 108 % of control | T/C (endpoint: mean survival time, dose: 0.25 mg/kg/injection, schedule: Q01DX009 (ip), vehicle: saline): 111 % of control | T/C (endpoint: mean survival time, dose: 0.5 mg/kg/injection, schedule: Q01DX009 (ip), vehicle: saline): 105 % of control

CCC(=O)O[C@H]1CC[C@H]2[C@@H]3CCC4=CC(=O)CC[C@]4(C)[C@H]3CC[C@]12C
T/C [1]: 121 % of control | T/C (endpoint: median survival time, dose: 8.0 mg/kg/injection, schedule: Q01DX009 (ip), vehicle: saline): 109 % of control | T/C [2]: 110 % of control | T/C (endpoint: median survival time, dose: 16.0 mg/kg/injection, schedule: Q01DX009 (ip), vehicle: saline): 102 % of control | T/C [3]: 118 % of control | T/C (endpoint: median survival time, dose: 32.0 mg/kg/injection, schedule: Q01DX009 (ip), vehicle: saline): 104 % of control | T/C (endpoint: median survival time, dose: 64.0 mg/kg/injection, schedule: Q01DX009 (ip), vehicle: saline with Tween-80): 118 % of control | T/C (endpoint: median survival time, dose: 128.0 mg/kg/injection, schedule: Q01DX009 (ip), vehicle: saline with Tween-80): 110 % of control | T/C (endpoint: median survival time, dose: 128.0 mg/kg/injection, schedule: Q01DX009 (ip), vehicle: saline): 224 % of control | T/C (endpoint: median survival time, dose: 256.0 mg/kg/injection, schedule: Q01DX009 (ip), vehicle: saline with Tween-80): 101 % of control | T/C (endpoint: median survival time, dose: 256.0 mg/kg/injection, schedule: Q01DX009 (ip), vehicle: saline): 120 % of control | T/C (endpoint: median survival time, dose: 512.0 mg/kg/injection, schedule: Q01DX009 (ip), vehicle: saline with Tween-80): 105 % of control | T/C (endpoint: median survival time, dose: 512.0 mg/kg/injection, schedule: Q01DX009 (ip), vehicle: saline): 116 % of control

Nc1ccn([C@@H]2C=C(CO)[C@@H](O)[C@H]2O)c(=O)n1
T/C (endpoint: median survival time, dose: 0.44 mg/kg/injection, schedule: Q01DX009 (ip), vehicle: saline): 103 % of control | T/C (endpoint: median survival time, dose: 0.67 mg/kg/injection, schedule: Q01DX009 (ip), vehicle: saline): 114 % of control | T/C (endpoint: median survival time, dose: 2.25 mg/kg/injection, schedule: Q01DX009 (ip), vehicle: saline): 120 % of control | T/C (endpoint: median survival time, dose: 3.76 mg/kg/injection, schedule: Q01DX009 (ip), vehicle: saline): 92 % of control

CN(C)/N=N/c1nc[nH]c1C(N)=O
T/C (endpoint: mean survival time, dose: 20.0 mg/kg/injection, schedule: Q01DX007 (ip), vehicle: DMSO): 100 % of control | T/C (endpoint: mean survival time, dose: 20.0 mg/kg/injection, schedule: Q01DX007 (ip), vehicle: other): 106 % of control | T/C (endpoint: mean survival time, dose: 25.0 mg/kg/injection, schedule: Q01DX009 (ip), vehicle: saline): 113 % of control | T/C (endpoint: mean survival time, dose: 40.0 mg/kg/injection, schedule: Q01DX007 (ip), vehicle: DMSO): 103 % of control | T/C (endpoint: mean survival time, dose: 40.0 mg/kg/injection, schedule: Q01DX007 (ip), vehicle: other): 106 % of control | T/C (endpoint: mean survival time, dose: 50.0 mg/kg/injection, schedule: Q01DX009 (ip), vehicle: saline): 111 % of control | T/C (endpoint: mean survival time, dose: 80.0 mg/kg/injection, schedule: Q01DX007 (ip), vehicle: DMSO): 116 % of control | T/C (endpoint: mean survival time, dose: 80.0 mg/kg/injection, schedule: Q01DX007 (ip), vehicle: other): 107 % of control | T/C (endpoint: mean survival time, dose: 100.0 mg/kg/injection, schedule: Q01DX009 (ip), vehicle: saline): 111 % of control | T/C (endpoint: mean survival time, dose: 160.0 mg/kg/injection, schedule: Q01DX007 (ip), vehicle: DMSO): 121 % of control | T/C (endpoint: mean survival time, dose: 160.0 mg/kg/injection, schedule: Q01DX007 (ip), vehicle: other): 121 % of control | T/C (endpoint: mean survival time, dose: 320.0 mg/kg/injection, schedule: Q01DX007 (ip), vehicle: DMSO): 103 % of control | T/C (endpoint: mean survival time, dose: 320.0 mg/kg/injection, schedule: Q01DX007 (ip), vehicle: other): 112 % of control | T/C [4]: 104 % of control | T/C [5]: 120 % of control | T/C [6]: 110 % of control | T/C [7]: 113 % of control

O=CC(NC(=O)N(CCCl)N=O)C(O)C(O)C(O)CO (configuration not stated)
T/C (endpoint: median survival time, dose: 3.13 mg/kg/injection, schedule: Q01DX001 (ip), vehicle: saline): 103 % of control | T/C (endpoint: median survival time, dose: 6.25 mg/kg/injection, schedule: Q01DX001 (ip), vehicle: saline): 106 % of control | T/C (endpoint: median survival time, dose: 12.5 mg/kg/injection, schedule: Q01DX001 (ip), vehicle: saline): 122 % of control | T/C (endpoint: median survival time, dose: 25.0 mg/kg/injection, schedule: Q01DX001 (ip), vehicle: DMSO): 152 % of control | T/C (endpoint: median survival time, dose: 50.0 mg/kg/injection, schedule: Q01DX001 (ip), vehicle: DMSO): 95 % of control | T/C (endpoint: median survival time, dose: 50.0 mg/kg/injection, schedule: Q01DX001 (ip), vehicle: saline): 92 % of control | T/C (endpoint: median survival time, dose: 50.0 mg/kg/injection, schedule: Q01DX001 (oral), vehicle: saline): 97 % of control

CN(Cc1cnc2nc(N)nc(N)c2n1)c1ccc(C(=O)N[C@@H](CCC(=O)O)C(=O)O)cc1
T/C (endpoint: median survival time, dose: 1.2 mg/kg/injection, schedule: Q04DX003 (ip), vehicle: saline): 114 % of control | T/C (endpoint: median survival time, dose: 2.3 mg/kg/injection, schedule: Q04DX003 (ip), vehicle: saline): 121 % of control | T/C (endpoint: median survival time, dose: 18.4 mg/kg/injection, schedule: Q04DX003 (ip), vehicle: saline): 164 % of control | T/C (endpoint: median survival time, dose: 36.8 mg/kg/injection, schedule: Q04DX003 (ip), vehicle: saline): 164 % of control

CN(C)N=Nc1ccc(C(N)=O)cc1
T/C (endpoint: median survival time, dose: 8.0 mg/kg/injection, schedule: Q01DX005 (ip), vehicle: saline with Tween-80): 104 % of control | T/C [4]: 113 % of control | T/C [5]: 121 % of control | T/C [7]: 106 % of control

NC(C/[N+]([O-])=N/O)C(=O)O (configuration not stated)
T/C (endpoint: median survival time, dose: 1.0 mg/kg/injection, schedule: Q01DX009 (ip), vehicle: saline with Tween-80): 98 % of control | T/C (endpoint: median survival time, dose: 2.0 mg/kg/injection, schedule: Q01DX009 (ip), vehicle: saline with Tween-80): 105 % of control | T/C (endpoint: median survival time, dose: 4.0 mg/kg/injection, schedule: Q01DX009 (ip), vehicle: saline with Tween-80): 101 % of control | T/C [1]: 101 % of control | T/C [2]: 102 % of control | T/C [3]: 104 % of control | T/C (endpoint: median survival time, dose: 56.25 mg/kg/injection, schedule: Q01DX009 (ip), vehicle: saline): 115 % of control | T/C (endpoint: median survival time, dose: 100.0 mg/kg/injection, schedule: Q01DX009 (ip), vehicle: Klucel (hydroxypropylcellulose) (HPC)): 110 % of control and 112 % of control | T/C (endpoint: median survival time, dose: 112.5 mg/kg/injection, schedule: Q01DX009 (ip), vehicle: saline): 89 % of control | T/C (endpoint: median survival time, dose: 200.0 mg/kg/injection, schedule: Q01DX009 (ip), vehicle: Klucel (hydroxypropylcellulose) (HPC)): 86 % of control and 87 % of control | T/C (endpoint: median survival time, dose: 225.0 mg/kg/injection, schedule: Q01DX009 (ip), vehicle: saline): 89 % of control

Nc1nc(=S)c2[nH]cnc2[nH]1
T/C (endpoint: mean survival time, dose: 0.13 mg/kg/injection, schedule: Q01DX009 (ip), vehicle: other): 102 % of control | T/C (endpoint: mean survival time, dose: 0.25 mg/kg/injection, schedule: Q01DX009 (ip), vehicle: other): 111 % of control | T/C (endpoint: mean survival time, dose: 0.5 mg/kg/injection, schedule: Q01DX009 (ip), vehicle: other): 108 % of control | T/C (endpoint: mean survival time, dose: 1.0 mg/kg/injection, schedule: Q01DX009 (ip), vehicle: other): 114 % of control

CCC(C)N(C)/N=N/c1nc[nH]c1C(N)=O (configuration not stated)
T/C [4]: 105 % of control | T/C [5]: 105 % of control | T/C [6]: 116 % of control | T/C [7]: 116 % of control

C#CCN(C)/N=N/c1nc[nH]c1C(N)=O
T/C [4]: 118 % of control | T/C [6]: 124 % of control | T/C [7]: 120 % of control
